In US20250268849A1, “TREATMENT OF LOW-GRADE GLIOMA WITH MIRDAMETINIB” (St. Jude Children’s Research Hospital, Inc., priority 2022, published 2025):

System: Low-Grade Glioma (LGG)
Assay: Phase I/II trial of single agent mirdametinib in patients with low-grade glioma
Assay type: in vivo, human
Method: Example 1: Phase I/II Evaluation of Single Agent Mirdametinib, a Brain-Penetrant MEK1/2 Inhibitor, for the Treatment of Children, Adolescents, and Young Adults With Low-Grade Glioma (LGG) A multi-arm phase I/II trial of mirdametinib is currently being conducted in patients ≥2 and <25 years with LGG. Phase I requires participants have no prior exposure to MEK inhibitors and recurrent/progressive disease with biopsy-proven evidence of MAPK pathway activation. Three escalating dose levels (2 mg/m^2/dose BID, 2.5 mg/m^2/dose BID and 3 mg/m^2/dose BID) are planned using a rolling 6 design. The median age enrolled in the study is 10 years (3-21 years old). 10 patients have somatic gene rearrangements (7 BRAF, 1 MYB, 1 RAF1, 1 FGFR1); 1 patient has a NF1 germline mutation; and 3 patients have metastatic disease. […] Of the 11 patients having a somatic gene rearrangement or NF1, 4 patients with BRAF and the 1 patient with FGFR1 received a dose of 2 mg/m^2 BID. The remainder of the 11 patients (3 BRAF, 1 MYB, 1 NF1, and 1 RAF1) received a dose of 2.5 mg/m^2 BID.

## O=C(NOC[C@H](O)CO)c1ccc(F)c(F)c1Nc1ccc(I)cc1F (single isomer, unassigned) [mirdametinib]
2 mg/m^2 BID (N = 5)
  Minor Response (MR), patients (decrease by 25-50%): 4 (80.0%)
2 mg/m^2 BID (N = 5), patients with somatic gene rearrangement or NF1, as of cut-off date
  Partial Response (PR), patients (decrease in tumor size by 50-75%): 1 (20.0%)
2.5 mg/m^2 BID (N = 6)
  Minor Response (MR), patients (decrease by 25-50%): 3 (50.0%)
  Stable Disease (SD), patients (stable tumor size or decrease up to 25%): 3 (50.0%)
Total (N = 11)
  Minor Response (MR), patients (decrease by 25-50%): 7 (63.6%)
  Stable Disease (SD), patients (stable tumor size or decrease up to 25%): 3 (27.3%)
Total (N = 11), 2 and 2.5 mg/m^2 BID pooled
  Partial Response (PR), patients (decrease in tumor size by 50-75%): 1 (9.1%)
Dose level 1 (2 mg/m^2)
  dose-limiting toxicities: No dose-limiting toxicities occurred
Dosed continuously, recurrent/progressive pediatric LGG
  tolerability: well-tolerated
Patients who completed at least one follow-up disease evaluation
  patients with minor response (>25%-<50% decrease): Four of the six patients
Phase I
  MEK related retinopathy or cardiopathy: No MEK related retinopathy or cardiopathy has been observed
  disease progressions: No disease progressions have occurred
Phase I, dose levels 1 and 2
  treatment-related adverse events, grade: Only grade 1 and 2
